Data published in patent publication US20100261723A1, “TRISUBSTITUTED PYRIMIDINE DERIVATIVES FOR THE TREATMENT OF PROLIFERATIVE DISEASES” (ASTRAZENECA AB, priority 2007, published 2010).

Biological target: T1, mTOR kinase (Homo sapiens, UniProt P42345)
T1 construct: FLAG; made in house
Assay: In vitro mTOR kinase assay, Test (a)(i) (AlphaScreen)
Type: biochemical
Settings: recombinant FLAG-tagged mTOR (1362-2549), ATP 20 μM; read-out: Test (a)(i) IC50
Procedure: (a)(i) In Vitro mTOR Kinase Assay
A C-terminal truncation of mTOR encompassing amino acid residues 1362 to 2549 of mTOR (EMBL Accession No. L34075) was stably expressed as a FLAG-tagged fusion in HEK293 cells as described by Vilella-Bach et al., […], 1999, 274, 4266-4272. The HEK293 FLAG-tagged mTOR (1362-2549) stable cell line was routinely maintained at 37° C. with 5% CO2 up to a confluency of 70-90% in Dulbecco's modified Eagle's growth medium (DMEM; Invitrogen Limited, Paisley, UK Catalogue No. 41966-029) containing 10% heat-inactivated foetal calf serum (FCS; Sigma, Poole, Dorset, UK, Catalogue No. F0392), 1% L-glutamine (Gibco, Catalogue No. 25030-024) and 2 mg/ml Geneticin (G418 sulfate; Invitrogen Limited, UK Catalogue No. 10131-027). Following expression in the mammalian HEK293 cell line, expressed protein was purified using the FLAG epitope tag using standard purification techniques.
A 30 μl mixture of recombinant purified mTOR enzyme, 1 μM biotinylated peptide substrate (Biotin-Ahx-[…]NH2; Bachem UK Ltd), ATP (20 μM) and a buffer solution [comprising Tris-HCl pH7.4 buffer (50 mM), EGTA (0.1 mM), bovine serum albumin (0.5 mg/mL), DTT (1.25 mM) and manganese chloride (10 mM)] was agitated at room temperature for 90 minutes.
These assay solutions were incubated for 2 hours at room temperature.
Phosphorylated biotinylated peptide is formed in situ as a result of mTOR mediated phosphorylation. The phosphorylated biotinylated peptide that is associated with AlphaScreen Streptavidin donor beads forms a complex with the p70 S6 Kinase (T389) 1A5 Monoclonal Antibody that is associated with Alphascreen Protein A acceptor beads. […] Accordingly, the presence of mTOR kinase activity results in an assay signal. In the presence of an mTOR kinase inhibitor, signal strength is reduced.

T1 sequence (P42345 1362-2549): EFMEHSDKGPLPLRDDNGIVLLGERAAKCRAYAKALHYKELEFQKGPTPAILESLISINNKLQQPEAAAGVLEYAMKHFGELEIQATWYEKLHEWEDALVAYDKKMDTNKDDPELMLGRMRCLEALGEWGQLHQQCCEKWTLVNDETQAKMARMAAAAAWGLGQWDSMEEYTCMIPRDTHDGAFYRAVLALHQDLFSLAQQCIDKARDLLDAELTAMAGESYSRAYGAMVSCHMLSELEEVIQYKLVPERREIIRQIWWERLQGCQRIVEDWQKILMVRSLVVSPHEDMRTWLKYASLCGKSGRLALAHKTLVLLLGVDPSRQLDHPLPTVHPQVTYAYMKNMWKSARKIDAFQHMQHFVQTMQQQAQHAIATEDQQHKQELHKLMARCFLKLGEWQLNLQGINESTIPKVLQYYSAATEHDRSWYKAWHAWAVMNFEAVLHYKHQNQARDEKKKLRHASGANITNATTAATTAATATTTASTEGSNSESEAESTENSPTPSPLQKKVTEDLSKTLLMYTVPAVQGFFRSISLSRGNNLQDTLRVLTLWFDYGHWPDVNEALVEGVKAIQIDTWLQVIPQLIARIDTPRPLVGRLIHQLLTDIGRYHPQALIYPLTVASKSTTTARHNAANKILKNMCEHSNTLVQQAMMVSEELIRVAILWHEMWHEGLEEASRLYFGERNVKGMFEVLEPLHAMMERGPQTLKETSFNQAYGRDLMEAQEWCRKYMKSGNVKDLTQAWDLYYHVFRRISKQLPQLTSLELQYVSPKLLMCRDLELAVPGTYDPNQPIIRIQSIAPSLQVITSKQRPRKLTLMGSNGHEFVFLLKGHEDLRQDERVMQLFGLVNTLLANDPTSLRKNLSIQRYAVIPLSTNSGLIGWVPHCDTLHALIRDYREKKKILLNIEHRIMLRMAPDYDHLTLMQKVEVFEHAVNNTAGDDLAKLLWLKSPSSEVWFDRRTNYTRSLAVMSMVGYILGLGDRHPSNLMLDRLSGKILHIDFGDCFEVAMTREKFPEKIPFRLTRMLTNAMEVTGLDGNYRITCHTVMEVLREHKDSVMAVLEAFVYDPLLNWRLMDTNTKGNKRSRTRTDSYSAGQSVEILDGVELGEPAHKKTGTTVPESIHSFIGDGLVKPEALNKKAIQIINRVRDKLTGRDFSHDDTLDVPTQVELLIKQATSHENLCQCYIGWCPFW

IC50	Compound
0.966 µM	CS(=O)(=O)Cc1cc(N2CCOCC2)nc(-c2ccc(NC(=O)c3c[nH]cn3)cc2)n1 [Example 5f, N-[4-[4-(methylsulfonylmethyl)-6-morpholin-4-yl-pyrimidin-2-yl]phenyl]-1H-imidazole-4-carboxamide]
3.67 µM	CC(C)C(=O)Nc1ccc(-c2nc(CS(C)(=O)=O)cc(N3CCOCC3)n2)cc1 [Example 5g, 2-methyl-N-[4-[4-(methylsulfonylmethyl)-6-morpholin-4-yl-pyrimidin-2-yl]phenyl]propanamide]
2.58 µM	CC(C)CC(=O)Nc1ccc(-c2nc(CS(C)(=O)=O)cc(N3CCOCC3)n2)cc1 [Example 5h, 3-methyl-N-[4-[4-(methylsulfonylmethyl)-6-morpholin-4-yl-pyrimidin-2-yl]phenyl]butanamide]
1.42 µM	CS(=O)(=O)Cc1cc(N2CCOCC2)nc(-c2ccc(NC(=O)c3ccco3)cc2)n1 [Example 5i, N-[4-[4-(methylsulfonylmethyl)-6-morpholin-4-yl-pyrimidin-2-yl]phenyl]furan-2-carboxamide]
8.27 µM	COCC(=O)Nc1ccc(-c2nc(CS(C)(=O)=O)cc(N3CCOCC3)n2)cc1 [Example 5j, 2-methoxy-N-[4-[4-(methylsulfonylmethyl)-6-morpholin-4-yl-pyrimidin-2-yl]phenyl]acetamide]
2.08 µM	COCCC(=O)Nc1ccc(-c2nc(CS(C)(=O)=O)cc(N3CCOCC3)n2)cc1 [Example 5k, 3-methoxy-N-[4-[4-(methylsulfonylmethyl)-6-morpholin-4-yl-pyrimidin-2-yl]phenyl]propanamide]
2 µM	CCOCCC(=O)Nc1ccc(-c2nc(CS(C)(=O)=O)cc(N3CCOCC3)n2)cc1 [Example 5l, 3-ethoxy-N-[4-[4-(methylsulfonylmethyl)-6-morpholin-4-yl-pyrimidin-2-yl]phenyl]propanamide]
1.11 µM	CS(=O)(=O)Cc1cc(N2CCOCC2)nc(-c2ccc(NC(=O)CCC(F)(F)F)cc2)n1 [Example 5m, 4,4,4-trifluoro-N-[4-[4-(methylsulfonylmethyl)-6-morpholin-4-yl-pyrimidin-2-yl]phenyl]butanamide]
0.614 µM	CS(=O)(=O)Cc1cc(N2CCOCC2)nc(-c2ccc(NC(=O)C3CC3)cc2)n1 [Example 5n, N-[4-[4-(methylsulfonylmethyl)-6-morpholin-4-yl-pyrimidin-2-yl]phenyl] cyclopropanecarboxamide]
1.85 µM	CS(=O)(=O)Cc1cc(N2CCOCC2)nc(-c2ccc(NC(=O)CC#N)cc2)n1 [Example 5o, 2-cyano-N-[4-[4-(methylsulfonylmethyl)-6-morpholin-4-yl-pyrimidin-2-yl]phenyl]acetamide]
4.85 µM	CS(=O)(=O)Cc1cc(N2CCOCC2)nc(-c2ccc(NC(=O)CCc3ccco3)cc2)n1 [Example 5q, 3-(2-furyl)-N-[4-[4-(methylsulfonylmethyl)-6-morpholin-4-yl-pyrimidin-2-yl]phenyl]propanamide]
2.76 µM	CS(=O)(=O)Cc1cc(N2CCOCC2)nc(-c2ccc(NC(=O)c3cccnc3)cc2)n1 [Example 5r, N-[4-[4-(methylsulfonylmethyl)-6-morpholin-4-yl-pyrimidin-2-yl]phenyl]pyridine-3-carboxamide]
2.29 µM	CS(=O)(=O)Cc1cc(N2CCOCC2)nc(-c2ccc(NC(=O)C(N)=O)cc2)n1 [Example 5s, N-[4-[4-(methylsulfonylmethyl)-6-morpholin-4-yl-pyrimidin-2-yl]phenyl]oxamide]
2.86 µM	CS(=O)(=O)Cc1cc(N2CCOCC2)nc(-c2ccc(NC(=O)C3CCC(=O)N3)cc2)n1 (stereo not shown) [Example 5t, N-[4-[4-(methylsulfonylmethyl)-6-morpholin-4-yl-pyrimidin-2-yl]phenyl]-5-oxo-pyrrolidine-2-carboxamide]
4.84 µM	CS(=O)(=O)Cc1cc(N2CCOCC2)nc(-c2ccc(NC(=O)C3CCOC3)cc2)n1 (stereo not shown) [Example 5u, N-[4-[4-(methylsulfonylmethyl)-6-morpholin-4-yl-pyrimidin-2-yl]phenyl]oxolane-3-carboxamide]
0.0369 µM	CS(=O)(=O)Cc1cc(N2CCOCC2)nc(-c2ccc(NC(=O)c3ccno3)cc2)n1 [Example 5v, N-[4-[4-(methylsulfonylmethyl)-6-morpholin-4-yl-pyrimidin-2-yl]phenyl]-1,2-oxazole-5-carboxamide]
8.09 µM	Cc1ccc(C(=O)Nc2ccc(-c3nc(CS(C)(=O)=O)cc(N4CCOCC4)n3)cc2)cn1 [Example 5w, 6-methyl-N-[4-[4-(methylsulfonylmethyl)-6-morpholin-4-yl-pyrimidin-2-yl]phenyl]pyridine-3-carboxamide]
6.2 µM	CS(=O)(=O)Cc1cc(N2CCOCC2)nc(-c2ccc(NC(=O)c3ccc(C#N)nc3)cc2)n1 [Example 5x, 6-cyano-N-[4-[4-(methylsulfonylmethyl)-6-morpholin-4-yl-pyrimidin-2-yl]phenyl]pyridine-3-carboxamide]
2.52 µM	CS(=O)(=O)Cc1cc(N2CCOCC2)nc(-c2ccc(NC(=O)Cn3ccnc3)cc2)n1 [Example 5y, 2-imidazol-1-yl-N-[4-[4-(methylsulfonylmethyl)-6-morpholin-4-yl-pyrimidin-2-yl]phenyl]acetamide]
9.05 µM	Cc1ccc(C(=O)Nc2ccc(-c3nc(CS(C)(=O)=O)cc(N4CCOCC4)n3)cc2)n1C [Example 5z, 1,5-dimethyl-N-[4-[4-(methylsulfonylmethyl)-6-morpholin-4-yl-pyrimidin-2-yl]phenyl]pyrrole-2-carboxamide]
0.24 µM	C[C@H]1COCCN1c1cc(CS(C)(=O)=O)nc(-c2ccc(N(C)C(=O)c3ccno3)cc2)n1 [Example 7, N-Methyl-N-[4-[4-[(3S)-3-methylmorpholin-4-yl]-6-(methylsulfonylmethyl)pyrimidin-2-yl]phenyl]-1,2-oxazole-5-carboxamide]
1.98 µM	C[C@H]1COCCN1c1cc(CS(C)(=O)=O)nc(-c2cccc(NC(=O)c3ccno3)c2)n1 [Example 7a, N-[3-[4-[(3S)-3-methylmorpholin-4-yl]-6-(methylsulfonylmethyl)pyrimidin-2-yl]phenyl]-1,2-oxazole-5-carboxamide]
